The source made the active and inactive calls.
Key:
[1] = biological target: T1, Lytic switch protein BZLF1 (Epstein-Barr virus (strain B95-8) (HHV-4) (Human herpesvirus 4), UniProt P03206); assay: inhibition of BZLF1 ZTA DNA binding – biochemical, fluorescence polarization, Epstein-Barr virus, 1536-well, counter-screen for EBNA-1 inhibitor project, dose response (AID 2377); set-up: species or system human gammaherpesvirus 4;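 note: fluorescence polarization of Cy5-labelled ZRE DNA probe bound by purified Zta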
T1 sequence (P03206 whole entry): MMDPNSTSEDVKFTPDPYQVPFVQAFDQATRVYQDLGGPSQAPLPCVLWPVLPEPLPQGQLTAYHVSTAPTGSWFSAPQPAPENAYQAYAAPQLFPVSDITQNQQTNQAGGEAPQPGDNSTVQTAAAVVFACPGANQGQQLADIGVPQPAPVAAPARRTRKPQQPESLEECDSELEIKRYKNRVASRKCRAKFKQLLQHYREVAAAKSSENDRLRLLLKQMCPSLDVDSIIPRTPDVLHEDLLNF

[2] = HEK-293T cell viability reduction – luminescence, B-cell screen hits, cytotoxicity control for BCR NF-kB inhibitor project, dose response (AID 489021); format: functional, cell-based;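 note: HEK-293T cells carrying an NF-kB luciferase reporter; cells exposed to compound for about 14 hours before viability readout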
[3] = biological target: T2, Epstein-Barr nuclear antigen 1 (Epstein-Barr virus (strain B95-8) (HHV-4) (Human herpesvirus 4), UniProt P03211); assay: inhibition of EBV nuclear antigen 1 DNA binding – biochemical, fluorescence polarization, 1536-well, dose response (AID 2381); set-up: species or system human gammaherpesvirus 4;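 note: fluorescence polarization of a Cy5 DNA probe bound by EBNA-1 protein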
T2 sequence (P03211 whole entry): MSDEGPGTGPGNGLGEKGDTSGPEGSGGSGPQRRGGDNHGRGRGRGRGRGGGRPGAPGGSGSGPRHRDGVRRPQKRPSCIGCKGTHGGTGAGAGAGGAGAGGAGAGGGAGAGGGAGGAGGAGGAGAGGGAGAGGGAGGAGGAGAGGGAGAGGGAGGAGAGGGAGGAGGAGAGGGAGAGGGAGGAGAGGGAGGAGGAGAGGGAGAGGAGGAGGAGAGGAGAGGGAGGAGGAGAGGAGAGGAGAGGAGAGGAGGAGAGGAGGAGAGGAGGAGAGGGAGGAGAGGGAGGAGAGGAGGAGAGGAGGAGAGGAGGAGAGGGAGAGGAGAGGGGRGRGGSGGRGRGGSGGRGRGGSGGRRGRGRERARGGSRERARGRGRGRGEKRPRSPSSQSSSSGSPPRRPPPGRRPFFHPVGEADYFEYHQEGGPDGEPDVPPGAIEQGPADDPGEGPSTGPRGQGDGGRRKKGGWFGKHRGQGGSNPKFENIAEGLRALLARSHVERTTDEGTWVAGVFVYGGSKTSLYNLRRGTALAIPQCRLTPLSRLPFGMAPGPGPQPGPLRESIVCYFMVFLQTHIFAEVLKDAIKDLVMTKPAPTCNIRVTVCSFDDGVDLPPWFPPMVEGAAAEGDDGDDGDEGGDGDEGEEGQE

[4] = biological target: DNA dC->dU-editing enzyme APOBEC-3G (Homo sapiens, UniProt Q9HC16); assay: Dose Response confirmation of small molecule APOBEC3G DNA Deaminase Inhibitors via a fluorescence-based single-stranded DNA deaminase assay. [Related pubchem assays (depositor defined):AID493012, AID493028]; format: functional
[5] = biological target: Glucose-6-phosphate 1-dehydrogenase (Homo sapiens, UniProt P11413); assay: inhibition of Homo sapiens G6PD, dose series – biochemical, fluorescence, selectivity assay for P. falciparum G6PD inhibitor project, dose response (AID 504792); format: functional
ORF 73 = ORF 73 (Human herpesvirus 8, UniProt O40947); assay: KSHV LANA DNA-binding disruption – biochemical, fluorescence polarization, cherry-picked samples, dose response (AID 504725); set-up: species or system Human gammaherpesvirus 8;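 note: fluorescence polarization of a labeled DNA duplex reporting LANA DNA binding; potency is for inhibitors that block LANA binding to the DNA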
Salmon testes DNA = assay: acridine orange-DNA binding displacement – biochemical, fluorescence polarization, cherry-picked samples, set 2, artefact control for KSHV LANA DNA-binding inhibitor project, dose response (AID 504727); set-up: species or system Salmonidae
SUMO-activating enzyme [6] = biological target: T3, SUMO-activating enzyme (Homo sapiens, UniProt Q9UBT2); assay: blockers of UBC9-mediated SUMO conjugation – biochemical, AlphaScreen, SUMOylation inhibitor project, confirmation (AID 2018); format: functional
SUMO-activating enzyme [7] = biological target: T3, SUMO-activating enzyme; assay: blockers of SAE1/SAE2–UBC9 SUMO transfer – biochemical, HTRF, uHTS, primary screen (AID 2006); format: protein-complex assay
Bcl-2-like protein 10 = biological target: T4, Bcl-2-like protein 10 (Homo sapiens, UniProt Q9HD36); assay: Bcl-B/TR3 peptide binding disruption – biochemical, fluorescence polarization, FITC-TR3 peptide, selectivity assay for Bfl-1 inhibitor project, primary screen (AID 748);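 note: fluorescence polarization from a fluorescein-labelled TR3 peptide binding purified Bcl-B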
T4 sequence (Q9HD36 whole entry): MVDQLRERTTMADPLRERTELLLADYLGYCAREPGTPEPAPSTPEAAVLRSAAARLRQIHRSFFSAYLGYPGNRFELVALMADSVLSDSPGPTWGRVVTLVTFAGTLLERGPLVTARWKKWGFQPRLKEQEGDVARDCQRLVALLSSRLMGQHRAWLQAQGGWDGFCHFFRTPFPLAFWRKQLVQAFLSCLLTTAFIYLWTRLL

Saccharomyces cerevisiae = assay: S. cerevisiae Caspase-1/ASC signal blockers IC50, NALP1 inhibitor project selectivity test (AID 488863); format: functional, organism-based
[8] = biological target: NACHT, LRR and PYD domains-containing protein 1 (Homo sapiens, UniProt Q9C000); assay: NALP1 inhibitors in yeast, dose response, luminescent (AID 488860); format: functional
[9] = Luminescence Cell-Based Dose Retest to Confirm Activators of 5'UTR Stem-Loop Driven Alpha-Synuclein mRNA Translation in H4 Neuroglioblastoma Cells. [Related pubchem assays (depositor defined):AID1813, AID1829]; format: functional
[10] = Luminescence Cell-Based Dose Confirmation HTS to Identify Activators of 5'UTR Stem-Loop Driven Alpha-Synuclein mRNA Translation in H4 Neuroglioblastoma Cells. [Related pubchem assays: 1829 (Project Summary), 1814 (Primary HTS)]; format: functional
H4 = assay: Luminescence Cell-Based Dose Response HTS to Identify Activators of 5'UTR Stem-Loop Driven Prion Protein mRNA Translation in H4 Neuroglioblastoma Cells. [Related pubchem assays: 1829 (Project Summary), 1814 (Primary HTS)]; format: functional; details: Homo sapiens
[11] = Luminescence Cell-Based Dose Confirmation to Identify Activators of 5'UTR Stem-Loop Driven Alpha-Synuclein mRNA Translation in H4 Neuroglioblastoma Cells. [Related pubchem assays: 1829 (Project Summary), 1814 (Primary HTS)]; format: functional
[12] = Luminescence Cell-Based Dose Response HTS to Identify Activators of Luciferase Translation or Activity in H4 […] Cells. [Related pubchem assays: 1829 (Project Summary), 1814 (Primary HTS)]; format: functional
[13] = Luminescence Cell-Based Dose Response HTS to Identify Activators of Luciferase Translation or Activity in H4-C Neuroglioblastoma Cells. [Related pubchem assays: 1829 (Project Summary), 1814 (Primary HTS)]; format: functional
[14] = Luminescence Cell-Based Dose Response to Identify Activators of Luciferase Translation or Activity in H4-C Neuroglioblastoma Cells. [Related pubchem assays: 1829 (Project Summary), 1814 (Primary HTS)]; format: functional
[15] = Luminescence Cell-Based Dose Response HTS to Identify Activators of 5'UTR Stem-Loop Driven Prion Protein mRNA Translation in H4-C Neuroglioblastoma Cells. [Related pubchem assays: 1829 (Project Summary), 1814 (Primary HTS)]; format: functional
[16] = Luminescence Cell-Based Dose Response to Identify Activators of 5'UTR Stem-Loop Driven Prion Protein mRNA Translation in H4-C Neuroglioblastoma Cells. [Related pubchem assays: 1829 (Project Summary), 1814 (Primary HTS)]; format: functional

Chain of NACHT, LRR and PYD domains-containing protein 1 (Q9C000 1-1212 limits assumed): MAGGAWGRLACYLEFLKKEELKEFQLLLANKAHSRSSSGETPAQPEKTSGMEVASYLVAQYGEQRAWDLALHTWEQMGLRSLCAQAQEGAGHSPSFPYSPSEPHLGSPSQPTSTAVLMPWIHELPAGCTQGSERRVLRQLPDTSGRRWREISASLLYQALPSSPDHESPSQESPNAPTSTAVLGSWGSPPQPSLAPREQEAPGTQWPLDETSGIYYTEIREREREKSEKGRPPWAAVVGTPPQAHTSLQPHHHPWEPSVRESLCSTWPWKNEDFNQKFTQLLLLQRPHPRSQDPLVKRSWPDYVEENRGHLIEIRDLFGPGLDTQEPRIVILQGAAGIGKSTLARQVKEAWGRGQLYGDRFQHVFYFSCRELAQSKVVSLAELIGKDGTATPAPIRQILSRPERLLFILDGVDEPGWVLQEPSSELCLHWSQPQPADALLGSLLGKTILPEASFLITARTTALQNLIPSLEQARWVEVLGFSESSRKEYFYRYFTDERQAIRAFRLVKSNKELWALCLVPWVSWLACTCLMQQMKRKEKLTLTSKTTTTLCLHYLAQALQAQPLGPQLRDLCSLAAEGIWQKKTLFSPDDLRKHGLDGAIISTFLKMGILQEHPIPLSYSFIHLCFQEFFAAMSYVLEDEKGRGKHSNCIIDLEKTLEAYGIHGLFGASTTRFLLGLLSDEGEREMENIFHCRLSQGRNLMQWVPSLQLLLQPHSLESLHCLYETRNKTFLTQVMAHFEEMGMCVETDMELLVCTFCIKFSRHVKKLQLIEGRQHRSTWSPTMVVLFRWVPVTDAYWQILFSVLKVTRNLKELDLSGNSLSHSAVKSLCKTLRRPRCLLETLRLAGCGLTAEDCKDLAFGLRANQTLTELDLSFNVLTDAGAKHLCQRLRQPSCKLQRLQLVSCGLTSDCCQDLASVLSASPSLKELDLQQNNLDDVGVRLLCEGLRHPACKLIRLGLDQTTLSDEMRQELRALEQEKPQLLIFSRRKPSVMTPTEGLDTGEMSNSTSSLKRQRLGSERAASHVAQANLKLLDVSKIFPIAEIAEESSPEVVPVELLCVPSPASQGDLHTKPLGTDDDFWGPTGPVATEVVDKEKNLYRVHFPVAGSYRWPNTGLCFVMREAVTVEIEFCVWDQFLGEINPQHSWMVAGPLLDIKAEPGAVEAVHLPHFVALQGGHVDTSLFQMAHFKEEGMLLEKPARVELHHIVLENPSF
Chain of NACHT, LRR and PYD domains-containing protein 1 (Q9C000 1213-1473 limits assumed): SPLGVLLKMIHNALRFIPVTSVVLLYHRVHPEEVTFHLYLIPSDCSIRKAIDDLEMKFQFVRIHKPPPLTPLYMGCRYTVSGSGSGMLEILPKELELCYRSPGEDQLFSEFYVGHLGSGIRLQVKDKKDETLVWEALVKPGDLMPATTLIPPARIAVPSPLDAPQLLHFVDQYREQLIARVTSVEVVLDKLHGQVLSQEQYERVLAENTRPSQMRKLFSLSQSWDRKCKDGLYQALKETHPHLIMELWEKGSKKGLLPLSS
T3 sequence (Q9UBE0 whole entry): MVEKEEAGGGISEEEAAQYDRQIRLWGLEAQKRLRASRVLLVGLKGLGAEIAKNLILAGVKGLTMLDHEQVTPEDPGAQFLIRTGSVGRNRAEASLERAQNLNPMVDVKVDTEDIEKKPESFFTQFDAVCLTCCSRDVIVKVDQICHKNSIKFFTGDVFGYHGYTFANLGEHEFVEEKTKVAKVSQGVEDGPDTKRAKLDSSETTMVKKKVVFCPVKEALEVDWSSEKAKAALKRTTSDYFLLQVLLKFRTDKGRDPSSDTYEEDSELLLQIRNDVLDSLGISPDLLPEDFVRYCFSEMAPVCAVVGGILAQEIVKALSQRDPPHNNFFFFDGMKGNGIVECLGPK
T3 sequence (Q9UBT2 whole entry): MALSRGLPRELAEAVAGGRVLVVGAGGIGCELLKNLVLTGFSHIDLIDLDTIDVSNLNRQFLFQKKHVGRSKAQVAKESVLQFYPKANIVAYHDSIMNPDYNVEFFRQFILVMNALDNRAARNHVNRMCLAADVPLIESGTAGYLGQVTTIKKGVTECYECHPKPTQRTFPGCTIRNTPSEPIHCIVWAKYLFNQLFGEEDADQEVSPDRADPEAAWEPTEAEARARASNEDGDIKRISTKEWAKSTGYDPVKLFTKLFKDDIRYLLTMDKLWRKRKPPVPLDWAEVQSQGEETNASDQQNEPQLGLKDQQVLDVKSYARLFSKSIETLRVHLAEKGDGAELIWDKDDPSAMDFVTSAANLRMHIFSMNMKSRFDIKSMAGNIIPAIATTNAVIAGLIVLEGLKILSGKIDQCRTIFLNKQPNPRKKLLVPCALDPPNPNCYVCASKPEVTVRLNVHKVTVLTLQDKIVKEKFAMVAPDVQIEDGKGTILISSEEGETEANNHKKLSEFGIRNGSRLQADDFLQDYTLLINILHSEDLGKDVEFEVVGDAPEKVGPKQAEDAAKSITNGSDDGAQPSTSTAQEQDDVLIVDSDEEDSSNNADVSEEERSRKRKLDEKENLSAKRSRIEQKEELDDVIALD
Chain of DNA dC->dU-editing enzyme APOBEC-3G (Q9HC16 whole entry): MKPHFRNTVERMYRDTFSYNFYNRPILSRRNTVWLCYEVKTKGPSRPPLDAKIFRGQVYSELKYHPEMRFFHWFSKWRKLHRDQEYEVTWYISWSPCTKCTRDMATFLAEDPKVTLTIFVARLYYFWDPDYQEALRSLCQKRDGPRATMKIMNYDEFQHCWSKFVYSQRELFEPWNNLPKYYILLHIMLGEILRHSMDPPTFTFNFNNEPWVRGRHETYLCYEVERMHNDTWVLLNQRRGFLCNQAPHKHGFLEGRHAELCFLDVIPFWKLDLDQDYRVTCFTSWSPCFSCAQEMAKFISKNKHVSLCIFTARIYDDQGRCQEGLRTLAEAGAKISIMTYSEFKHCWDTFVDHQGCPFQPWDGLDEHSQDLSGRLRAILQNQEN
Chain of ORF 73 (O40947 whole entry): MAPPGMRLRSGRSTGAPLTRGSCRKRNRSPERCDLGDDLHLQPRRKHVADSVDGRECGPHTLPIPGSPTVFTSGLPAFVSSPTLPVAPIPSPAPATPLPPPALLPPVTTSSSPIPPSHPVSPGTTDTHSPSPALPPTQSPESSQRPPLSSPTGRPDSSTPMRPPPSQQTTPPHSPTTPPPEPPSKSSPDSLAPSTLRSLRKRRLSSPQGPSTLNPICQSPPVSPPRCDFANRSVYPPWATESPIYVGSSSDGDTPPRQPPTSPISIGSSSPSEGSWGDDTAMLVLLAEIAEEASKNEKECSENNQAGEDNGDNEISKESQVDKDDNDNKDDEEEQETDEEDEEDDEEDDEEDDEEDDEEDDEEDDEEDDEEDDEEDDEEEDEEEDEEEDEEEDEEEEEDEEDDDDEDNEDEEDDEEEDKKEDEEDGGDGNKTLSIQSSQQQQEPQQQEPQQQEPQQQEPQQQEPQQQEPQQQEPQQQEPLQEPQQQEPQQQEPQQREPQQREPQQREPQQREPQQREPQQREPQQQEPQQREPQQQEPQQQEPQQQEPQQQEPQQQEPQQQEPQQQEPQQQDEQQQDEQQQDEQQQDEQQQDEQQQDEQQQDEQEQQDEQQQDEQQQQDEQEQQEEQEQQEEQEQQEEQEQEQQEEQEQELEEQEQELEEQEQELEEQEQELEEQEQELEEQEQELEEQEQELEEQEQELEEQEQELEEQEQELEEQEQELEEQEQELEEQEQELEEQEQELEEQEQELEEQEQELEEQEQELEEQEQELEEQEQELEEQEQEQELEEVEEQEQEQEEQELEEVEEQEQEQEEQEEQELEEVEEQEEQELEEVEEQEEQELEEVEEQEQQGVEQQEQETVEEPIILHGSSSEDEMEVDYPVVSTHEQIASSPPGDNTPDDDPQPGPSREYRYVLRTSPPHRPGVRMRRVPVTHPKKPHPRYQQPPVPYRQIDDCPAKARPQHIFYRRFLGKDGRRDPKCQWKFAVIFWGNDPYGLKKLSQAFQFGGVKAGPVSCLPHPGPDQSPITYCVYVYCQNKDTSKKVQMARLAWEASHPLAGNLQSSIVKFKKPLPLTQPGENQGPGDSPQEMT
Chain of Glucose-6-phosphate 1-dehydrogenase (P11413 whole entry): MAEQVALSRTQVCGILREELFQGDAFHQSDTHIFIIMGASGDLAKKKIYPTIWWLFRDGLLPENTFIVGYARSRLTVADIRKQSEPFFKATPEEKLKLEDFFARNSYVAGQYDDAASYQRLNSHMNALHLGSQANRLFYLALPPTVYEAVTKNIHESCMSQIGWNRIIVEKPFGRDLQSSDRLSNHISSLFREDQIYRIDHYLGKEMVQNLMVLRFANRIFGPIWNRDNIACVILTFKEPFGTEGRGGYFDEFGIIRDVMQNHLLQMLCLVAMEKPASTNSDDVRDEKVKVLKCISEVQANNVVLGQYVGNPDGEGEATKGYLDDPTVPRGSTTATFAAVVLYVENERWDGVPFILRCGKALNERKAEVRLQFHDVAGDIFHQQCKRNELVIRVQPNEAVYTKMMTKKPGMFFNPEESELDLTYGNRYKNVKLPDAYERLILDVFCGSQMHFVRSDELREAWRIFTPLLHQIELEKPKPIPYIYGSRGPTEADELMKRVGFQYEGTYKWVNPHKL

Cn1c(=O)n(C)c2cc(/C=C3/NC(=O)N(Cc4ccccc4)C3=O)ccc21
IC50 [1]: > 111 µM (not active)
IC50 [2]: > 80 µM (inactive)
IC50 [3]: 11.2 µM (not active)

CCC1(C)CC(C(N)=S)CCO1 (stereo not drawn)
IC50 [4]: 33.2 µM (active)
IC50 [5]: > 80 µM (inactive)

O=C(NC12CC3CC(CC(C3)C1)C2)N1CCN(c2ncccn2)CC1
AC50 (ORF 73): 81.5 µM (active)
AC50 (Salmon testes DNA): 210 µM (active)

O=[N+]([O-])c1ccccc1/C=C/C=N/n1c(S)nnc1-c1cc(-c2ccccc2)[nH]n1
IC50 (SUMO-activating enzyme [6]): 10.3 µM (active)
IC50 (SUMO-activating enzyme [7]): 26.8 µM (active)

CN(C)c1ccc(NC(=O)CN2C(=O)CC(c3ccccc3)=Nc3ccccc32)cc1
IC50 (Bcl-2-like protein 10): > 100 µM (inactive)

CC(=O)c1ccc(NC(=O)Nc2ccc(Cl)cc2)cc1
IC50 (Saccharomyces cerevisiae): 2.98 µM (active)
IC50 [8]: 35.9 µM (active)

CCN(C(=O)COC(=O)c1cccnc1Nc1cccc(C(F)(F)F)c1)C1CCS(=O)(=O)C1 (stereo not drawn)
IC50 (Saccharomyces cerevisiae): > 100 µM (inactive)
IC50 [8]: > 100 µM (inactive)

O=C(COC(=O)Cn1cnc2ccccc21)Nc1cc2c(cc1Cl)C(=O)c1ccccc1C2=O
EC50 [9]: > 195 µM (inactive)
EC50 [10]: < 0.1 µM (active)
EC50 (H4): 40.4 µM (active)
EC50 [11]: 1.19 µM (active)
EC50 [12]: > 120 µM (not active)
EC50 [13]: 0.609 µM (active)
EC50 [14]: > 12 µM (not active)
EC50 [15]: 2.52 µM (active)
EC50 [16]: > 12 µM (not active)
